Assay results reported in patent US10604555B2, “GIP derivatives and uses thereof” (priority 2018, dated 2020).
*1 amine or outer side, *2 acyl side, *3 side chain or, on linkers, in order; H or OH if unused. Where no end group is shown, it is not given here. Side-chain parts run from the residue outwards. [ ]: non-standard residue; d: D form. The star is where a group is joined. C18 diacid = O=C(O)CCCCCCCCCCCCCCCCC(=O)*; γGlu = O=C(O)[C@H](CCC(=O)[*:2])N[*:1]; Nle = CCCC[C@H](N)C(=O)O; AEEA = NCCOCCOCC(=O)O; Aib = CC(C)(N)C(=O)O

Assays:
Assay type in all cases: cell-based
Conditions in all cases: 0.2% HSA
human GIP receptor = target: T1, human GIP receptor (Homo sapiens, UniProt P48546); test: In vitro potency (CRE luciferase; whole cells), BHK CRE luc2P hGIPR
T1 construct: expressed in transfected cells; host or cells: BHK (parent line BHKTS13), BHK CRE luc2P hGIPR clone #5
T1 sequence (P48546 22-466): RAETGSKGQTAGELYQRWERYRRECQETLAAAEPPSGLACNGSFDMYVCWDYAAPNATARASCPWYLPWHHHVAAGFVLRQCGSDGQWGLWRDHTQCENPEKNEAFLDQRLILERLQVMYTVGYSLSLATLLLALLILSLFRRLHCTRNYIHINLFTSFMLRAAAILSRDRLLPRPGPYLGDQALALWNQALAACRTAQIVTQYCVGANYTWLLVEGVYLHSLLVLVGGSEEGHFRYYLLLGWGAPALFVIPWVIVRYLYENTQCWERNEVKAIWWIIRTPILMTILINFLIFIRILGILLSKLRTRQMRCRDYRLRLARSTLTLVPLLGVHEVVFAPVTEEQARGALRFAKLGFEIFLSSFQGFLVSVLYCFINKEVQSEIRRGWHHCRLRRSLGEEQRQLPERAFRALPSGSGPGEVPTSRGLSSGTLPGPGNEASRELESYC
Summary of the method: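 BHK clones carrying a CRE luciferase element, each transfected with one human receptor, were seeded at 5000 cells/well overnight. Compounds were diluted in buffer with 1% ovalbumin and 0.1% Pluronic F-68, with or without human serum albumin. Luminescence was read after steadylite plus; non-linear log(agonist)-response fit, averaged over at least two replicates.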

human glucagon receptor = target: T2, human glucagon receptor (Homo sapiens, UniProt P47871); test: In vitro potency (CRE luciferase; whole cells), BHK CRE luc2P hGCGR
T2 construct: expressed in transfected cells; host or cells: BHK (parent line BHKTS13), BHK CRE luc2P hGCGR clone #18
T2 sequence (P47871 26-477): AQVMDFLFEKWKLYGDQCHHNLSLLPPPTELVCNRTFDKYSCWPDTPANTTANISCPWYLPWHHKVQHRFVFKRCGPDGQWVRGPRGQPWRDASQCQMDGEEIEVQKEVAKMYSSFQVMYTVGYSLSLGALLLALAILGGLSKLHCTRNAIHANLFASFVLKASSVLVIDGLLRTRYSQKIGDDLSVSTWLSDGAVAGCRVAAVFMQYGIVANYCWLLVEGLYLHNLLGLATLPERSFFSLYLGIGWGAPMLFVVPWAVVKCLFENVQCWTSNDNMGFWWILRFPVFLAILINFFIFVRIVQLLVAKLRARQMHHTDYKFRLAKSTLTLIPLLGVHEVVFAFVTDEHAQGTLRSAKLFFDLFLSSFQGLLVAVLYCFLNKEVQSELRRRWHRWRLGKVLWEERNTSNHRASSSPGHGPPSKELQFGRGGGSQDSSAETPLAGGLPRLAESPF
Procedure: (§1) In Vitro Potency (CRE Luciferase; Whole Cells)
(§2) The in vitro potency is the measure of human GIP, GLP-1 or glucagon receptor activation, respectively, in a whole cell assay.
(§3) In vitro potency was determined by measuring the response of the human GIP, GLP-1 or glucagon receptor in a reporter gene assay in individual cell lines. […] When the respective receptor is activated it results in the production of cAMP, which in turn results in the luciferase protein being expressed. When assay incubation is completed the luciferase substrate (luciferin) is added and the enzyme converts luciferin to oxyluciferin to produce bioluminescence. The luminescence is measured as the readout for the assay.
(§4) The cells were derived from a clone containing the CRE luciferase element and were established by further transfection with the respective receptor to obtain the current clone.
(§5) The cells were cultured at 5% CO2 in Cell Culture Medium. They were aliquoted and stored in liquid nitrogen. The cells were kept in passage and were seeded out the day before each assay.
(§6) The Assay Buffer consisted of 1% ovalbumin and 0.1% Pluronic F-68 in Assay Medium with the addition of human serum albumin at twice the indicated concentrations.
(§7) 1) Cells were plated at 5000 cells/well and incubated overnight.
(§8) 2) Cells were washed three times in PBS.
(§9) 3) Assay Medium (50 μl aliquot) with or without serum albumin was added to each well in the assay plate.
(§10) 4) Stocks of the test compounds and reference compounds were diluted to a concentration of 0.2 μM in Assay Buffer. […] 8) The cells were washed three times with PBS plus some liquid in each well. 9) A 100 μl aliquot of steadylite plus reagent was added to each well of the assay plate (reagent was light sensitive). 10) Each assay plate was covered with aluminum foil to protect it from light and shaken for 30 min at room temperature. 11) Each assay plate was read in a microtiter plate reader. Calculations and Results
The data from the microtiter plate reader was transferred to GraphPad Prism software. […]
A minimum of two replicates was measured for each sample. […]

human GLP-1 receptor = target: T3, human GLP-1 receptor (Homo sapiens, UniProt P43220); test: In vitro potency (CRE luciferase; whole cells), BHK CRE luc2P hGLP-1R
T3 construct: expressed in transfected cells; host or cells: BHK (parent line BHKTS13), BHK CRE luc2P hGLP-1R clone #6
T3 sequence (P43220 24-463): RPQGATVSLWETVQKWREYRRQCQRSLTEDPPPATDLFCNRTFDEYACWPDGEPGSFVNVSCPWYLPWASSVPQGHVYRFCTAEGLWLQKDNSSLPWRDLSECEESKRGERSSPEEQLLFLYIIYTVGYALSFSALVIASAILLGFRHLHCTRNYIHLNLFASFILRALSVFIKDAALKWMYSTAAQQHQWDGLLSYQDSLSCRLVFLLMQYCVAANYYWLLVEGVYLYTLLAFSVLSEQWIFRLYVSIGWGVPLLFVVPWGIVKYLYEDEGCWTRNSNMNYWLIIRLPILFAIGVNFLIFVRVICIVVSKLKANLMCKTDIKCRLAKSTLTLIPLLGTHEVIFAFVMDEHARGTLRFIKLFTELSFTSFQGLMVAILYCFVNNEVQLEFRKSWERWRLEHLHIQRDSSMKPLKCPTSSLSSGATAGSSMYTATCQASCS
Procedure: as §1, §2, §3, §4, §5, §6, §7, §8, §9, §10
The data from the microtiter plate reader was transferred to GraphPad Prism software. The software performs a non-linear regression (log(agonist) vs response).
A minimum of two replicates was measured for each sample. The reported values are averages of the replicates.

Row | EC50 (human GIP receptor) [nM] | EC50 (human glucagon receptor) [nM] | EC50 (human GLP-1 receptor) [nM] | Compound
1 | 0.00412 | > 100 | > 100 | CCCC[C@H](NC(=O)[C@H](C)NC(=O)[C@@H](NC(=O)[C@H](CO)NC(=O)[C@H](Cc1ccc(O)cc1)NC(=O)[C@H](CC(=O)O)NC(=O)[C@H](CO)NC(=O)[C@@H](NC(=O)[C@H](Cc1ccccc1)NC(=O)[C@@H](NC(=O)CNC(=O)[C@H](CCC(=O)O)NC(=O)C(C)(C)NC(=O)[C@@H](N)Cc1ccc(O)cc1)[C@@H](C)O)[C@@H](C)CC)[C@@H](C)CC)C(=O)N[C@@H](CC(=O)O)C(=O)N[C@@H](CCCCN)C(=O)N[C@H](C(=O)N[C@@H](CCCNC(=N)N)C(=O)N[C@@H](CCC(N)=O)C(=O)N[C@@H](CCC(N)=O)C(=O)N[C@@H](CC(=O)O)C(=O)N[C@@H](Cc1ccccc1)C(=O)N[C@H](C(=O)N[C@@H](CCCCNC(=O)COCCOCCNC(=O)COCCOCCNC(=O)CC[C@H](NC(=O)CCCCCCCCCCCCCCCCC(=O)O)C(=O)O)C(=O)N[C@@H](Cc1c[nH]c2ccccc12)C(=O)N[C@@H](CC(C)C)C(=O)N[C@@H](CC(C)C)C(=O)N[C@@H](C)C(=O)N[C@@H](CCC(N)=O)C(=O)N[C@@H](CCCCN)C(=O)NCC(=O)N[C@@H](CCCCN)C(=O)N[C@@H](CCC(=O)O)C(=O)N[C@@H](CCC(=O)O)C(=O)N[C@@H](CC(=O)O)C(=O)N[C@@H](Cc1c[nH]c2ccccc12)C(=O)N[C@@H](CCCCN)C(=O)N[C@@H](Cc1c[nH]cn1)C(=O)N[C@@H](CC(N)=O)C(=O)N[C@H](C(=O)N[C@H](C(=O)N[C@@H](CCC(N)=O)C(=O)O)[C@@H](C)O)[C@@H](C)CC)C(C)C)[C@@H](C)CC [Compound 37, N{Epsilon-24}-[2-[2-[2-[[2-[2-[2-[[(4S)-4-carboxy-4-(17-carboxyheptadecanoylamino)butanoyl]amino]ethoxy]ethoxy]acetyl]amino]ethoxy]ethoxy]acetyl]-[Aib2,Nle14,Arg18,Lys24,Glu33,Glu34]-hGIP]
2 | 0.00447 | > 100 | > 100 | CCCC[C@H](NC(=O)[C@H](C)NC(=O)[C@@H](NC(=O)[C@H](CO)NC(=O)[C@H](Cc1ccc(O)cc1)NC(=O)[C@H](CC(=O)O)NC(=O)[C@H](CO)NC(=O)[C@@H](NC(=O)[C@H](Cc1ccccc1)NC(=O)[C@@H](NC(=O)CNC(=O)[C@H](CCC(=O)O)NC(=O)C(C)(C)NC(=O)[C@@H](N)Cc1ccc(O)cc1)[C@@H](C)O)[C@@H](C)CC)[C@@H](C)CC)C(=O)N[C@@H](CC(=O)O)C(=O)N[C@@H](CCCCN)C(=O)N[C@H](C(=O)N[C@@H](CCCNC(=N)N)C(=O)N[C@@H](CCC(N)=O)C(=O)N[C@@H](CCC(N)=O)C(=O)N[C@@H](CC(=O)O)C(=O)N[C@@H](Cc1ccccc1)C(=O)N[C@H](C(=O)N[C@@H](CCCCNC(=O)CC[C@H](NC(=O)CC[C@H](NC(=O)CC[C@H](NC(=O)CCCCCCCCCCCCCCCCC(=O)O)C(=O)O)C(=O)O)C(=O)O)C(=O)N[C@@H](Cc1c[nH]c2ccccc12)C(=O)N[C@@H](CC(C)C)C(=O)N[C@@H](CC(C)C)C(=O)N[C@@H](C)C(=O)N[C@@H](CCC(N)=O)C(=O)N[C@@H](CCCCN)C(=O)NCC(=O)N[C@@H](CCCCN)C(=O)N[C@@H](CCC(=O)O)C(=O)N[C@@H](CCC(=O)O)C(=O)N[C@@H](CC(=O)O)C(=O)N[C@@H](Cc1c[nH]c2ccccc12)C(=O)N[C@@H](CCCCN)C(=O)N[C@@H](Cc1c[nH]cn1)C(=O)N[C@@H](CC(N)=O)C(=O)N[C@H](C(=O)N[C@H](C(=O)N[C@@H](CCC(N)=O)C(=O)O)[C@@H](C)O)[C@@H](C)CC)C(C)C)[C@@H](C)CC [Compound 40, N{Epsilon-24}-[(4S)-4-carboxy-4-[[(4S)-4-carboxy-4-[[(4S)-4-carboxy-4-(17-carboxyheptadecanoylamino)butanoyl]amino]butanoyl]amino]butanoyl]-[Aib2,Nle14,Arg18,Lys24,Glu33,Glu34]-hGIP]
3 | 0.00545 | > 100 | > 100 | Y[Aib]EGTFISDYSIA[Nle]DKIHQQDFVK([AEEA-AEEA-γGlu-C18 diacid])WLLAQKGKEEDWKHNITQ [Compound 35, N{Epsilon-24}-[2-[2-[2-[[2-[2-[2-[[(4S)-4-carboxy-4-(17-carboxyheptadecanoylamino)butanoyl]amino]ethoxy]ethoxy]acetyl]amino]ethoxy]ethoxy]acetyl]-[Aib2,Nle14,Lys24,Glu33,Glu34]-hGIP]
